Experimental data reported in ChEMBL document CHEMBL1141712, “Kinase array design, back to front: biaryl amides” (Bioorg Med Chem Lett, 2008).
Blank lines part the entries; values can stand above or below the compound they belong to.

How the values were obtained:
[1] = molecular target: Mitogen-activated protein kinase 14 (Homo sapiens, UniProt Q16539); assay: Displacement of fluorescent ATP competitive ligand from p38alpha
[2] = molecular target: Vascular endothelial growth factor receptor 2 (Homo sapiens, UniProt P35968); assay: Inhibition of VEGFR2
[3] = molecular target: Cyclin-dependent kinase 2 (Homo sapiens, UniProt P24941); assay: Inhibition of CDK2
[4] = molecular target: T1, Serine/threonine-protein kinase Sgk1 (Homo sapiens, UniProt O00141); assay: Inhibition of SGK1
T1 sequence (O00141 whole entry): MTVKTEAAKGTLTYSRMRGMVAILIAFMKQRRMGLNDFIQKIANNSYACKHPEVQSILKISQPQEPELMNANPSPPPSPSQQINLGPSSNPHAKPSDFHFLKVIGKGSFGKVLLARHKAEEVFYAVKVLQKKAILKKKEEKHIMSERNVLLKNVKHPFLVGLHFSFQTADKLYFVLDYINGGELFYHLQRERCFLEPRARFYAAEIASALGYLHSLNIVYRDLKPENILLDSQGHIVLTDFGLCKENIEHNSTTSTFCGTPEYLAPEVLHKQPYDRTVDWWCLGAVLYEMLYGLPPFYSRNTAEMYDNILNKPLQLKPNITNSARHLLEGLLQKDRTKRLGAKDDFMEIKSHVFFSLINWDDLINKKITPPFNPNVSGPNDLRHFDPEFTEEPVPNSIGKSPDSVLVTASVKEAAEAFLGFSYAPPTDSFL

[5] = molecular target: Tyrosine-protein kinase Lck (Homo sapiens, UniProt P06239)
[6] = molecular target: Receptor tyrosine-protein kinase erbB-4 (Homo sapiens, UniProt Q15303); assay: Inhibition of ErbB4
[7] = molecular target: Serine/threonine-protein kinase PLK1 (Homo sapiens, UniProt P53350); assay: Inhibition of PLK1
[8] = molecular target: Mitogen-activated protein kinase 10 (Homo sapiens, UniProt P53779); assay: Inhibition of JNK3
[9] = molecular target: Epidermal growth factor receptor (Homo sapiens, UniProt P00533)
[10] = molecular target: Macrophage colony-stimulating factor 1 receptor (Homo sapiens, UniProt P07333); assay: Inhibition of cFMS
[11] = molecular target: Dual specificity mitogen-activated protein kinase kinase 1 (Homo sapiens, UniProt Q02750); assay: Inhibition of MEK1 by cRaf/mek/Erk cascade assay
Blood = assay: Inhibition of LPS-stimulated TNFalpha release in human whole blood; type: functional, tissue-based
PBMC = assay: Inhibition of LPS-stimulated TNFalpha release in human PBMCs; type: functional, cell-based

Epidermal growth factor receptor, sequence (P00533 whole entry): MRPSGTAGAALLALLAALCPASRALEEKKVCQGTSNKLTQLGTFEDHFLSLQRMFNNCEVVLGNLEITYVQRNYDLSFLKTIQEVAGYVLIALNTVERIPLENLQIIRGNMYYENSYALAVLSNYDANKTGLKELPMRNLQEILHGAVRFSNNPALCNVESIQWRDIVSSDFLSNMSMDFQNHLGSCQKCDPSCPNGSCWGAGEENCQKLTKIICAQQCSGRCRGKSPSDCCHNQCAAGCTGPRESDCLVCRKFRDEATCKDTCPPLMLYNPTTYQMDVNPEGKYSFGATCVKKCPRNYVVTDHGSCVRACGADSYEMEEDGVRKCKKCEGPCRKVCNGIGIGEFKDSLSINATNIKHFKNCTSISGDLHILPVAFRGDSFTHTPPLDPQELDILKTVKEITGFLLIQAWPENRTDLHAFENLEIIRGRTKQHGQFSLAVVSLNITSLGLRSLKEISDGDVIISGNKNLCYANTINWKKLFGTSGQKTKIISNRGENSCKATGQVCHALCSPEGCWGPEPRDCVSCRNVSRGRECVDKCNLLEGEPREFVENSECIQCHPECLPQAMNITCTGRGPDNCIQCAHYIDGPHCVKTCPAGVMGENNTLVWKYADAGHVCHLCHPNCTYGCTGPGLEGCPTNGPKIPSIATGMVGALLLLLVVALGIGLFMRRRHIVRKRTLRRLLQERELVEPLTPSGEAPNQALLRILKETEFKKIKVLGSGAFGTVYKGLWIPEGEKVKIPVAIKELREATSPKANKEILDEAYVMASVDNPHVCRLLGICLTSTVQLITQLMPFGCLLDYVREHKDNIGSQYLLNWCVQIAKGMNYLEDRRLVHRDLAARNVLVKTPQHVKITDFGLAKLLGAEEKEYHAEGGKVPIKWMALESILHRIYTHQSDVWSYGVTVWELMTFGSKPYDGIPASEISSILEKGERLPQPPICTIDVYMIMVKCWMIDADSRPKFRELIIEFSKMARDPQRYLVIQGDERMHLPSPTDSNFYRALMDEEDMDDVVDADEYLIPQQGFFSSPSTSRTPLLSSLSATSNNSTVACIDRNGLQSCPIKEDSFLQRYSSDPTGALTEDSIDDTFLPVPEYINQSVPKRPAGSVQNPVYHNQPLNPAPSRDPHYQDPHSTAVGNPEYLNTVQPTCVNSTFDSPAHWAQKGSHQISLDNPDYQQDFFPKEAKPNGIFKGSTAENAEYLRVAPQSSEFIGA
Serine/threonine-protein kinase PLK1, sequence (P53350 whole entry): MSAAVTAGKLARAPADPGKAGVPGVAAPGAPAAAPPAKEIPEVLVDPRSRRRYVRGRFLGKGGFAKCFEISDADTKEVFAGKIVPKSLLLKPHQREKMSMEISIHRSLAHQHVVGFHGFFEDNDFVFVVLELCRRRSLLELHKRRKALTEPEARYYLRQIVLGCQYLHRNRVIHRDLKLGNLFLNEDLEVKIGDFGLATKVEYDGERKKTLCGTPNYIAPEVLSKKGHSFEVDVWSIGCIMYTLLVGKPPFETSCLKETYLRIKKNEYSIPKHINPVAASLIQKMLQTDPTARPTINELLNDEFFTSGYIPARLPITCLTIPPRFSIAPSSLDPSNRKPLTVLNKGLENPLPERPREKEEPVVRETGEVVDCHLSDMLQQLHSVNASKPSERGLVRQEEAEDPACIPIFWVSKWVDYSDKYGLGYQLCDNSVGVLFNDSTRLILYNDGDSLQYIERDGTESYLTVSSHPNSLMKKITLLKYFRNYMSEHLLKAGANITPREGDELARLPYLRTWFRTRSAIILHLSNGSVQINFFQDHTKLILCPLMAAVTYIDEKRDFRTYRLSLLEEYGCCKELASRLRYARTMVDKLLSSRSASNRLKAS
Mitogen-activated protein kinase 14, sequence (Q16539 whole entry): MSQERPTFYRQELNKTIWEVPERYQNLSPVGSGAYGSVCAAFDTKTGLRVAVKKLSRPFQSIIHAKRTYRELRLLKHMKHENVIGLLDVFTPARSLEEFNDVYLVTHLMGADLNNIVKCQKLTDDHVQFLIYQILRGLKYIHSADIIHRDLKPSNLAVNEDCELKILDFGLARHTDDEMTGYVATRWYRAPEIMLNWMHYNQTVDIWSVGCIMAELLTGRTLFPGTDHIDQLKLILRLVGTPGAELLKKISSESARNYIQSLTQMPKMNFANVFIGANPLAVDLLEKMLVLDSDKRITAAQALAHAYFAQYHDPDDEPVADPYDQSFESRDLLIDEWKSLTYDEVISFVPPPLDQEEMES
Macrophage colony-stimulating factor 1 receptor, sequence (P07333 whole entry): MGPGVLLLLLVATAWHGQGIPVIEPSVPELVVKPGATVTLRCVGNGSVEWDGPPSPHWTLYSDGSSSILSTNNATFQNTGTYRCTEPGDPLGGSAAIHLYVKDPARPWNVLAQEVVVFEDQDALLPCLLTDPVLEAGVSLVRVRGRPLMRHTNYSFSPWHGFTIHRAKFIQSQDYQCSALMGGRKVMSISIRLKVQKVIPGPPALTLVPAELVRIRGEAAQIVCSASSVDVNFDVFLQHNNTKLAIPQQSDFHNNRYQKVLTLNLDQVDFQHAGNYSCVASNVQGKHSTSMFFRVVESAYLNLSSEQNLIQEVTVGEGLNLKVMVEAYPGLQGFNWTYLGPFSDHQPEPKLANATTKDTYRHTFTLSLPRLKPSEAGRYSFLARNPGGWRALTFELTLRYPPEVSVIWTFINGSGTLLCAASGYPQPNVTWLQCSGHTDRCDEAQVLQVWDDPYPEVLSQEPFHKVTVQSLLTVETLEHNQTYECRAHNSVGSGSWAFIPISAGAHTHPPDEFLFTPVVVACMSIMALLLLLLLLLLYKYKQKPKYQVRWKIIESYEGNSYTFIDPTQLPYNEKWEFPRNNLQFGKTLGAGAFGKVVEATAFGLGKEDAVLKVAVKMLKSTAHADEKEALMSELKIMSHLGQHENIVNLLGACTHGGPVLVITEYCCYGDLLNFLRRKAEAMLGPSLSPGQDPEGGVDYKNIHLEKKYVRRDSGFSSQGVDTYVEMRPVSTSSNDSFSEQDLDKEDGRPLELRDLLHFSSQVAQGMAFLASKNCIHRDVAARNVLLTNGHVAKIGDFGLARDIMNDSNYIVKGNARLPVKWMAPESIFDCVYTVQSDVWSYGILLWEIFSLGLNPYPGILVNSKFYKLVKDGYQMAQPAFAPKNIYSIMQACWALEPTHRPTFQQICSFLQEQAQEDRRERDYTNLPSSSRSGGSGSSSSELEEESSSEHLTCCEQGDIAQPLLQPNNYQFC
Dual specificity mitogen-activated protein kinase kinase 1, sequence (Q02750 whole entry): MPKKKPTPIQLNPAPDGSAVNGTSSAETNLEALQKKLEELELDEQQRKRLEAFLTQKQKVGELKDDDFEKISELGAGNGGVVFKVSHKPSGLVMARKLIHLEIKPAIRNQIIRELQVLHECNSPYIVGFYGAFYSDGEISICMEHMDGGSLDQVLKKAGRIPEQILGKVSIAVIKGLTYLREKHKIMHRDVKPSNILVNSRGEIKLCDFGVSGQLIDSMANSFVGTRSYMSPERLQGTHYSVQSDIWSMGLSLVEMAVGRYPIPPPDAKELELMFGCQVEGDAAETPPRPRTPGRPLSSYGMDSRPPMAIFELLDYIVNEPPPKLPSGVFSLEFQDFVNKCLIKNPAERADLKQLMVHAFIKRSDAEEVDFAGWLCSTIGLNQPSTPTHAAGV
Mitogen-activated protein kinase 10, sequence (P53779 whole entry): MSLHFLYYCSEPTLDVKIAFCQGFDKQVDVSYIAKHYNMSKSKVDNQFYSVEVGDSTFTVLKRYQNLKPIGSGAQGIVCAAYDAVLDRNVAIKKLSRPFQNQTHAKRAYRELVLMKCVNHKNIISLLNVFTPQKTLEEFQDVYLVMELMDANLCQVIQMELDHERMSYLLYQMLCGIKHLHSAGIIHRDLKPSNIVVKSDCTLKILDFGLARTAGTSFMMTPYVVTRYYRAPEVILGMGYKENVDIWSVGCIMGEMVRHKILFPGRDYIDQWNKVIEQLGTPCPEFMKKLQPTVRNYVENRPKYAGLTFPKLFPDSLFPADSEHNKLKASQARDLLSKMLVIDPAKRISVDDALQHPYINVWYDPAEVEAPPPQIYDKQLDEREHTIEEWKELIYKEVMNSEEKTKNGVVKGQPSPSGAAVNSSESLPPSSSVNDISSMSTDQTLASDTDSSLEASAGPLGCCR
Tyrosine-protein kinase Lck, sequence (P06239 whole entry): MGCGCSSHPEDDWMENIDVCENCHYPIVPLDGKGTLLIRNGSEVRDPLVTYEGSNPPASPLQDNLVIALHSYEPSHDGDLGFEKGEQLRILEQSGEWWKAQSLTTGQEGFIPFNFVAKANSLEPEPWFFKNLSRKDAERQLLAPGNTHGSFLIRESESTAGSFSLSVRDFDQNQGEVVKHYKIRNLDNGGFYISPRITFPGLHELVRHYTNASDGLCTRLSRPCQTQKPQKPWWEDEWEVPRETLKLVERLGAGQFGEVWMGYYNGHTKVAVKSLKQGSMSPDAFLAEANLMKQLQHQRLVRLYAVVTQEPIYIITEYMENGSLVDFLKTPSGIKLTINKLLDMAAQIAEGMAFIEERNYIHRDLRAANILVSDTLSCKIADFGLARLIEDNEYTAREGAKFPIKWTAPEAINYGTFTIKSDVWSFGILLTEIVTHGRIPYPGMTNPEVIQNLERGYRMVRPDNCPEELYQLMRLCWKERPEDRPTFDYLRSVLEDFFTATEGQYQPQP

Ki [1]: > 2500 nM
Structure (SMILES): Cc1ccc(NC(=O)c2ccc(CN3CCN(C)CC3)cc2)cc1-c1ccc2cc[nH]c(=O)c2c1

Ki [1]: 11 nM
Structure (SMILES): CCCCn1c(=O)[nH]c2cc(-c3cc(NC(=O)c4ccnc(N5CCCC5)c4)ccc3C)ccc2c1=O

Ki [1]: 98 nM
Structure (SMILES): Cc1nc(-c2ccc(-c3cc(C(=O)NC4CC4)ccc3C)cc2)no1

Ki [1]: > 2500 nM
Structure (SMILES): Cc1ccc(NC(=O)c2ccc(CN3CCN(C)CC3)cc2)cc1-c1ccc2cccnc2c1

Ki [1]: 490 nM
Structure (SMILES): Cc1ccc(C(=O)NC2CC2)cc1-c1ccc2cccnc2c1

Structure (SMILES): Cc1ccc(NC(=O)c2ccc(CN3CCN(C)CC3)cc2)cc1-c1ccc2ccncc2c1
IC50 [2]: 800 nM
IC50 [3]: > 20000 nM
IC50 [4]: > 33000 nM
IC50 [5]: 70 nM
IC50 [6]: 300 nM
IC50 [7]: > 25000 nM
IC50 [8]: > 16000 nM
IC50 [9]: 700 nM
Ki [1]: 830 nM
IC50 [10]: 4 nM

Ki [1]: 2.9 nM
Structure (SMILES): Cc1ccc(C(=O)NC2CC2)cc1-c1ccc2c(=O)[nH]c(-c3cccs3)nc2c1

Ki [1]: 110 nM
Structure (SMILES): Cc1ccc(C(=O)Nc2cccc(N3CCOCC3)c2)cc1-c1ccc2[nH]ncc2c1

Ki [1]: > 850 nM
Structure (SMILES): Cc1nc(-c2ccc(-c3cc(NC(=O)c4ccc(CN5CCN(C)CC5)cc4)ccc3C)cc2)no1

Ki [1]: 160 nM
Structure (SMILES): Cc1ccc(NC(=O)c2ccnc(N3CCCC3)c2)cc1-c1ccc2onc(C)c2c1

Ki [1]: 14 nM
Structure (SMILES): CC(=O)Nc1cc(-c2ccc(-c3cc(NC(=O)c4ccnc(N5CCCC5)c4)ccc3C)cc2)[nH]n1

Ki [1]: 2.4 nM
Structure (SMILES): Cc1ccc(NC(=O)c2ccnc(N3CCCC3)c2)cc1-c1ccc2cc[nH]c(=O)c2c1

Structure (SMILES): Cc1nnc(-c2ccc(-c3cc(NC(=O)c4ccc(CN5CCN(C)CC5)cc4)ccc3C)c(C)c2)o1
IC50 [2]: > 20000 nM
IC50 [3]: > 20000 nM
IC50 [4]: > 33000 nM
IC50 [5]: 3000 nM
IC50 [6]: > 25000 nM
IC50 [7]: > 25000 nM
IC50 [8]: > 16000 nM
IC50 [9]: > 25000 nM
Ki [1]: 1400 nM
IC50 [10]: 100 nM

IC50 [2]: > 20000 nM
IC50 [3]: > 20000 nM
IC50 [11]: 30 nM
IC50 [4]: > 33000 nM
IC50 [5]: 6000 nM
IC50 (Blood): 5000 nM
IC50 [7]: > 25000 nM
IC50 [8]: > 16000 nM
Ki [1]: 0.8 nM
IC50 [10]: 7000 nM
Structure (SMILES): Cc1ccc(NC(=O)c2ccnc(N3CCCC3)c2)cc1-c1ccc2c(C3CCNCC3)noc2c1
IC50 (PBMC): 60 nM

Ki [1]: 49 nM
Structure (SMILES): Cc1ccc(NC(=O)c2ccnc(N3CCCC3)c2)cc1-c1ccc2[nH]c(=O)ccc2c1

IC50 [2]: > 20000 nM
IC50 [3]: > 20000 nM
IC50 [11]: 200 nM
IC50 [4]: > 33000 nM
IC50 [5]: 10000 nM
IC50 (Blood): 700 nM
IC50 [7]: > 25000 nM
IC50 [8]: > 16000 nM
Ki [1]: 1.7 nM
IC50 [10]: > 20000 nM
Structure (SMILES): Cc1nnc(-c2ccc(-c3cc(NC(=O)c4ccnc(N5CCCC5)c4)ccc3C)c(C)c2)o1
IC50 (PBMC): 100 nM

Ki [1]: 12 nM
Structure (SMILES): Cc1ccc(NC(=O)c2ccnc(N3CCCC3)c2)cc1-c1ccc2c(N)noc2c1

Ki [1]: > 2500 nM
Structure (SMILES): Cc1ccc(NC(=O)c2ccc(CN3CCN(C)CC3)cc2)cc1-c1ccc2[nH]c(=O)ccc2c1

Structure (SMILES): Cc1nnc(-c2ccc(-c3cc(C(=O)Nc4cccc(N5CCOCC5)c4)ccc3C)c(C)c2)o1
IC50 [2]: 6000 nM
IC50 [3]: > 20000 nM
IC50 [11]: 400 nM
IC50 [4]: > 33000 nM
IC50 [7]: > 25000 nM
IC50 [8]: > 16000 nM
Ki [1]: 2.8 nM
IC50 [10]: 700 nM

IC50 [2]: > 20000 nM
IC50 [3]: > 20000 nM
IC50 [4]: 32000 nM
IC50 [5]: > 16000 nM
IC50 [6]: > 25000 nM
IC50 (Blood): 500 nM
IC50 [7]: > 25000 nM
IC50 [8]: > 16000 nM
IC50 [9]: > 25000 nM
Ki [1]: 6 nM
IC50 [10]: > 20000 nM
Structure (SMILES): Cc1ccc(C(=O)NC2CC2)cc1-c1ccc2c(=O)n(CC3CC3)nnc2c1
IC50 (PBMC): 400 nM

Ki [1]: 20 nM
Structure (SMILES): Cc1ccc(C(=O)Nc2cccc(N3CCOCC3)c2)cc1-c1ccc(-c2csc(N)n2)cc1

Ki [1]: 130 nM
Structure (SMILES): Cc1ccc(C(=O)NC2CC2)cc1-c1ccc(-c2csc(N)n2)cc1

Ki [1]: 110 nM
Structure (SMILES): Cc1ccc(C(=O)NC2CC2)cc1-c1ccc2c(N)noc2c1

Ki [1]: 1.1 nM
Structure (SMILES): Cc1nc(-c2ccc(-c3cc(NC(=O)c4ccnc(N5CCCC5)c4)ccc3C)cc2)no1
